Measurements as given in patent publication US20210113529A1, “MEDICINE FOR PREVENTING OR TREATING OPHTHALMIC DISEASE ASSOCIATED WITH ENHANCED INTRAOCULAR NEOVASCULARIZATION AND/OR INTRAOCULAR VASCULAR PERMEABILITY” (KYOTO UNIVERSITY, priority 2018, published 2021).

Experiments:
[1] = test system: lymphocytes in the peripheral blood; experiment: Lymphocyte count in peripheral blood, C57BL/6J strain mice; format: in vivo; details: C57BL/6J mice, 24 hours from final administration
Method: Seven-week-old mice (Japan SLC, Inc., C57BL/6J strain) were repeatedly orally administered Compound 1 suspended in a vehicle (0.5% MC solution) at a dose of 0.003 mg/kg, 0.01 mg/kg, 0.03 mg/kg, 0.1 mg/kg, 0.3 mg/kg, or 1 mg/kg (in terms of free form) once daily for 14 days in the same manner as in Example 1. A control was administered only the vehicle (vehicle group). Experiments were performed using 5 mice in each group. At 24 hours from the final administration, blood was collected from the abdominal vena cava under isoflurane anesthesia using a heparin-treated syringe, and was mixed with ethylenediaminetetraacetic acid dipotassium salt (EDTA.2K) (1 mg). The lymphocyte count in the collected blood was measured using XT-2000iv (Sysmex Corporation).

[2] = test system: retinal vein occlusion (RVO) model; experiment: RVO model, intravitreal administration: thickness of INL; format: in vivo, mice; details: 0.8 ng, 8 ng or 80 ng per eye immediately after laser irradiation, 1 day after irradiation
Method: Eight-week-old mice (Japan SLC, Inc., ddy strain) were anesthetized by intramuscularly administering 10 mL/kg of a mixed anesthetic solution diluted so as to contain ketamine (120 mg/kg) and xylazine (6 mg/kg). After that, 0.15 mL of rose bengal (20 mg/kg; WAKO) was administered into the tail vein, and a vein three head systems away from the optic nerve head of the right eye of the mice was irradiated with a laser to occlude a retinal vein. For the occlusion, the laser irradiation was performed 10 times to 15 times per vein. For the laser irradiation, an attachment of a fundus photography apparatus Micron 4 (Phoenix Research Laboratories, Inc., Pleasanton, Calif., USA) was used (wavelength: 532 nm, spot size: 50 μm, irradiation time: 5,000 ms, laser output: 50 mW). Three veins were occluded per eye, and it was confirmed with photographs of the fundus that the laser-irradiated veins had been completely occluded. […]
After 1 day from the laser irradiation, the mice were euthanized by cervical dislocation, the eyeball was extirpated, and histological evaluation was performed by a hematoxylin-eosin staining method. In addition, the thickness of the retinal inner nuclear layer (INL) was measured at intervals of 240 μm on both sides, i.e., ear side and nose side from the center of the optic nerve head. […]

S1P3 receptor = S1P3 receptor (Homo sapiens, UniProt Q99500); details: GTP[γ35S] binding assay; report PLoS One, 2014; cited from earlier work
S1P4 receptor = target: T1, S1P4 receptor (Homo sapiens, UniProt O95977); details: GTP[γ35S] binding assay; report PLoS One, 2014; cited from earlier work
T1 sequence (O95977 1-384): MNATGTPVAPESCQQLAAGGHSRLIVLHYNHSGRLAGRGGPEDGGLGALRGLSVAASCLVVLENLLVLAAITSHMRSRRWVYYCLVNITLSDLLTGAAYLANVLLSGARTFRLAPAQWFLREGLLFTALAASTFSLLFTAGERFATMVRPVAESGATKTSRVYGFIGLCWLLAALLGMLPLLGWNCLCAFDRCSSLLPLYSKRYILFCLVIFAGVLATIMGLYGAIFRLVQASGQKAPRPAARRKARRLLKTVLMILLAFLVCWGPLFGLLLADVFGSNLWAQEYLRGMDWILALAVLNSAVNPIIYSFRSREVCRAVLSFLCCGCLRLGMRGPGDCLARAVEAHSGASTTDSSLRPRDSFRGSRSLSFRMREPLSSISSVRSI

Body weight in CNV model = format: in vivo, mice; details: oral once daily dosing, vs vehicle group
Excerpt: A case in which FA was unable to be performed owing to cloudiness caused by a flaw in the eye produced before the FA evaluation and a case in which CNV was connected at the time of the evaluation of the area of CNV were excluded from analysis, and the above-mentioned results were each calculated as a mean of 11 or 12 mice in each group. […] A case in which FA was unable to be performed owing to cloudiness caused by a flaw in the eye produced before the FA evaluation and a case in which CNV was connected at the time of the evaluation of the area of CNV were excluded from analysis, and the above-mentioned results were each calculated as a mean of 12 mice in each group.

[3] = test system: lymphocytes in the peripheral blood; experiment: Lymphocyte count in peripheral blood, ddy strain mice; format: in vivo; details: 0.03 mg/kg orally twice at an interval of 12 hours, 24 hours from second administration
Method: Next, 7-week-old mice (Japan SLC, Inc., ddy strain) were orally administered Compound 1 suspended in a vehicle (0.5% MC solution) at a dose of 0.03 mg/kg or 0.3 mg/kg (in terms of free form) twice at an interval of 12 hours in the same manner as in Example 2. A control was administered only the vehicle (vehicle group). Experiments were performed using 6 mice in each group. After 24 hours from the second administration, blood was collected from the abdominal vena cava under isoflurane anesthesia using a heparin-treated syringe, and was mixed with EDTA.2K (1 mg). The lymphocyte count in the collected blood was measured using XT-2000iv (Sysmex Corporation).

VEGF = VEGF production in CNV model (western blot of choroid-retinal pigment epithelium); format: in vivo, mice; details: 0.3 mg/kg orally once daily, 5 days after laser irradiation
Method: A CNV model generated by the same method as in Example 1 was orally administered Compound 1 suspended in a vehicle (0.5% MC solution) at a dose of 0.3 mg/kg (in terms of free form) once daily from the day before laser irradiation to the day of sampling. Controls were an untreated group (normal group) and a group administered only the vehicle (vehicle group). Experiments were performed using 6 mice in the Compound 1 administration group, 8 mice in the normal group, and 7 mice in the vehicle group. After 5 days from the laser irradiation, the mice were euthanized by cervical dislocation, and the eyeball was extirpated. Choroid-retinal pigment epithelium was isolated from the eyeball, and the expression amount of VEGF protein was measured by a western blot method using an anti-VEGF antibody (manufactured by Merck Millipore). In addition, the results of calculation of the expression amount of VEGF relative to that of β-actin with reference to the normal group are shown in FIG. 5(b).

Chain of S1P3 receptor (Q99500 whole entry): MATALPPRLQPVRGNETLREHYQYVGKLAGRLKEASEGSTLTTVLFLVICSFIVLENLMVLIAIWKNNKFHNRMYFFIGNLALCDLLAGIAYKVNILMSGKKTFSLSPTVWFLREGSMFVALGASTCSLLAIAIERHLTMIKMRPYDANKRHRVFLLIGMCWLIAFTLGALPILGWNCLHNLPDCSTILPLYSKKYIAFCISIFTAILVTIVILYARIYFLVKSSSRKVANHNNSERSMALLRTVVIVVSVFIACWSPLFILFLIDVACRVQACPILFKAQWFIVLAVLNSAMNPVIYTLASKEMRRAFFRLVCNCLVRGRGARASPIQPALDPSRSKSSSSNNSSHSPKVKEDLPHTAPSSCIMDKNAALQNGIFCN

## C[C@H](Oc1ccc(-c2nc(-c3ccc4[nH]cnc4c3)no2)cc1C(F)(F)F)C(F)(F)F.Cl [Compound 1, 5-{5-[3-(trifluoromethyl)-4-{[(2S)-1,1,1-trifluoropropan-2-yl]oxy}phenyl]-1,2,4-oxadiazol-3-yl}-1H-benzimidazole monohydrochloride]
[1]; 0.03 mg/kg orally once daily for 14 days
  lymphocytes in the peripheral blood: not found to have a significant action
[1]; 0.1 mg/kg or more orally once daily for 14 days
  lymphocytes in the peripheral blood: significantly decreased lymphocytes in the peripheral blood
[2]
  thickening of the INL (retinal edema): ameliorated the thickening of the INL
S1P3 receptor
  EC50 for S1P3 receptor agonist activity as compared to that for the S1P1 receptor: ≥ 100 fold
S1P4 receptor
  EC50 for S1P4 receptor agonist activity as compared to that for the S1P1 receptor: ≥ 100 fold
Body weight in CNV model
  change in body weight between the groups before sampling: a significant change in body weight between the groups before sampling was not found
[3]
  lymphocytes in the peripheral blood: did not cause a significant decrease in lymphocytes in the peripheral blood
VEGF
  expression of VEGF relative to β-actin, as compared to the vehicle group: significantly reduced the expression of VEGF
